Biological target: T1, Chk1 (Homo sapiens, UniProt O14757)
T1 construct: purchased Upstate Biotechnology
T1 sequence (O14757 1-476): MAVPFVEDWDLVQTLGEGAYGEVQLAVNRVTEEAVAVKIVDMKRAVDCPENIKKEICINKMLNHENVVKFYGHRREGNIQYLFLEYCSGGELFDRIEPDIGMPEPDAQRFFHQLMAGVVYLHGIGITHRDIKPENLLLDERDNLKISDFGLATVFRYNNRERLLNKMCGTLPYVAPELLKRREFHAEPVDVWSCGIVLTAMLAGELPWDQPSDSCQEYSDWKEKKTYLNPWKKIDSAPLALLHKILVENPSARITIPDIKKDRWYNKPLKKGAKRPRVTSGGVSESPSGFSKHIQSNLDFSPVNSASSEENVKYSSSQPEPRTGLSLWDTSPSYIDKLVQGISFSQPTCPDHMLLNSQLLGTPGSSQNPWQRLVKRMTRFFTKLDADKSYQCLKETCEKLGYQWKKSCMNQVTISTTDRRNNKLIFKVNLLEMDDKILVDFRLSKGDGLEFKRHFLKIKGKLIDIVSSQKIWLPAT
Test: Chk1 kinase assay: incorporation of γ-33P ATP into immobilized myelin basic protein
Type: biochemical
Conditions: Table 11; Chk1 only; read-out: Chk1 IC50
How it was run: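 Incorporation of γ-33P into myelin basic protein coated on plates was scintillation-counted after 1 h at room temperature, duplicate points. Unlabeled ATP was 10 μM with 10 nM Chk1, 30 μM with 20 nM Chk2; buffer Hepes pH 7.6, MgCl2, DTT, 1% DMSO. Output IC50, optionally converted to Ki.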

SMILES | IC50
Nc1ncc(-c2cccc(C(=O)N[C@H]3CCc4ccccc43)c2)nc1-c1nnc([C@H]2CCCNC2)[nH]1 [Example 755, 3-(5-amino-6-{5-[(3S)-piperidin-3-yl]-4H-1,2,4-triazol-3-yl}pyrazin-2-yl)-N-[(1S)-2,3-dihydro-1H-inden-1-yl]benzamide] | < 50 nM
CC(C)(C)OC(=O)N1CC[C@H](NC(=O)c2nc(-c3cccc(C(=O)NCc4ccccn4)c3)cnc2N)C1 [Example 757, 1,1-dimethylethyl (3S)-3-({[3-amino-6-(3-{[(pyridin-2-ylmethyl)amino]carbonyl}phenyl)pyrazin-2-yl]carbonyl}amino)pyrrolidine-1-carboxylate] | 1000 to 10000 nM
CC(C)(C)OC(=O)N1CC[C@H](NC(=O)c2nc(-c3cccc(C(=O)NCc4cccnc4)c3)cnc2N)C1 [Example 758, 1,1-dimethylethyl (3S)-3-({[3-amino-6-(3-{[(pyridin-3-ylmethyl)amino]carbonyl}phenyl)pyrazin-2-yl]carbonyl}amino)pyrrolidine-1-carboxylate] | 1000 to 10000 nM
CC(C)(C)OC(=O)N1CC[C@H](NC(=O)c2nc(-c3cccc(C(=O)NC4CCOc5ccccc54)c3)cnc2N)C1 (stereo partly drawn) [Example 759, 1,1-dimethylethyl (3S)-3-{[(3-amino-6-{3-[(3,4-dihydro-2H-chromen-4-ylamino)carbonyl]phenyl}pyrazin-2-yl)carbonyl]amino}pyrrolidine-1-carboxylate] | 1000 to 10000 nM
Nc1ncc(-c2cccc(C(=O)NCc3ccc(Cl)cc3)c2)nc1C(=O)N[C@H]1CCNC1 [Example 760, 3-amino-6-[3-({[(4-chlorophenyl)methyl]amino}carbonyl)phenyl]-N-[(3S)-pyrrolidin-3-yl]pyrazine-2-carboxamide] | < 50 nM
Nc1ncc(-c2cccc(C(=O)NCc3ccccn3)c2)nc1C(=O)N[C@H]1CCNC1 [Example 761, 3-amino-6-(3-{[(pyridin-2-ylmethyl)amino]carbonyl}phenyl)-N-[(3S)-pyrrolidin-3-yl]pyrazine-2-carboxamide] | 50 to 1000 nM
CNC(=O)c1nc(-c2cc(C(=O)OC)cc(C(=O)OC)c2)cnc1N [Example 763, dimethyl 5-{5-amino-6-[(methylamino)carbonyl]pyrazin-2-yl}benzene-1,3-dicarboxylate] | 1000 to 10000 nM
Nc1ncc(-c2cccc(C(=O)N[C@H]3CCc4ccccc43)c2)nc1C(=O)N[C@@H]1CCCNC1 [Example 765, 3-amino-6-(3-{[(1S)-2,3-dihydro-1H-inden-1-ylamino]carbonyl}phenyl)-N-[(3R)-piperidin-3-yl]pyrazine-2-carboxamide] | < 50 nM
Nc1ncc(-c2cccc(C(=O)N[C@@H]3c4ccccc4C[C@@H]3O)c2)nc1C(=O)NC1CCCNC1 (stereo partly drawn) [Example 766, 3-amino-6-[3-({[(1R,2S)-2-hydroxy-2,3-dihydro-1H-inden-1-yl]amino}carbonyl)phenyl]-N-piperidin-3-ylpyrazine-2-carboxamide] | < 50 nM
Nc1ncc(-c2cccc(C(=O)N[C@H]3CCc4ccccc43)c2)nc1C(=O)NCCc1c[nH]cn1 [Example 767, 3-amino-6-(3-{[(1S)-2,3-dihydro-1H-inden-1-ylamino]carbonyl}phenyl)-N-[2-(1H-imidazol-4-yl)ethyl]pyrazine-2-carboxamide] | 50 to 1000 nM
Nc1ncc(-c2cccc(C(=O)N[C@H]3CCc4ccccc43)c2)nc1C(=O)NC1CCCNCC1 (stereo partly drawn) [Example 768, 3-amino-N-azepan-4-yl-6-(3-{[(1S)-2,3-dihydro-1H-inden-1-ylamino]carbonyl}phenyl)pyrazine-2-carboxamide] | 50 to 1000 nM
CC(C)(C)OC(=O)N1CC[C@@H](CNC(=O)c2nc(-c3cccc(C(=O)N[C@@H]4c5ccccc5C[C@@H]4O)c3)cnc2N)C1 [Example 769, 1,1-dimethylethyl (3S)-3-{[({3-amino-6-[3-({[(1R,2S)-2-hydroxy-2,3-dihydro-1H-inden-1-yl]amino}carbonyl)phenyl]pyrazin-2-yl}carbonyl)amino]methyl}pyrrolidine-1-carboxylate] | ≥ 10000 nM
CC(C)(C)OC(=O)N1CCCC(NC(=O)c2nc(-c3cccc(C(=O)N[C@H]4CCc5ccccc54)c3)cnc2N)CC1 (stereo partly drawn) [Example 770, 1,1-dimethylethyl 4-({[3-amino-6-(3-{[(1S)-2,3-dihydro-1H-inden-1-ylamino]carbonyl}phenyl)pyrazin-2-yl]carbonyl}amino)azepane-1-carboxylate] | ≥ 10000 nM
Nc1ncc(-c2cccc(C(=O)N[C@H]3CCc4ccccc43)c2)nc1-c1n[nH]c(CCOCc2ccccc2)n1 [Example 771, 3-[5-amino-6-(5-{2-[(phenylmethyl)oxy]ethyl}-1H-1,2,4-triazol-3-yl)pyrazin-2-yl]-N-[(1S)-2,3-dihydro-1H-inden-1-yl]benzamide] | 1000 to 10000 nM
CNC(=O)c1nc(-c2ccc(F)c(C(=O)N[C@H]3CCc4ccccc43)c2)cnc1N [Example 772, 3-amino-6-(3-{[(1S)-2,3-dihydro-1H-inden-1-ylamino]carbonyl}-4-fluorophenyl)-N-methylpyrazine-2-carboxamide] | 50 to 1000 nM
Nc1ncc(-c2cccc(C(=O)N[C@H]3CCc4ccccc43)c2)nc1-c1nc(C2CCCNC2)n(-c2ccccc2)n1 (stereo partly drawn) [Example 773, 3-[5-amino-6-(1-phenyl-5-piperidin-3-yl-1H-1,2,4-triazol-3-yl)pyrazin-2-yl]-N-[(1S)-2,3-dihydro-1H-inden-1-yl]benzamide] | 50 to 1000 nM
N=C(N)c1nc(-c2cccc(C(=O)N[C@H]3CCc4ccccc43)c2)cnc1N [Example 774, 3-{5-amino-6-[amino(imino)methyl]pyrazin-2-yl}-N-[(1S)-2,3-dihydro-1H-inden-1-yl]benzamide] | 1000 to 10000 nM
Nc1ncc(-c2cccc(C(=O)N[C@@H]3c4ccccc4C[C@@H]3O)c2)nc1-c1nnc([C@H]2CCCNC2)[nH]1 [Example 775, 3-(5-amino-6-{5-[(3S)-piperidin-3-yl]-4H-1,2,4-triazol-3-yl}pyrazin-2-yl)-N-[(1R,2S)-2-hydroxy-2,3-dihydro-1H-inden-1-yl]benzamide] | < 50 nM
CC(C)(C)OC(=O)N1CCC[C@H](NC(=O)c2nc(-c3cccc(C(=O)N[C@H]4CCc5ccccc54)c3)cnc2N)C1 [Example 776, 1,1-dimethylethyl (3S)-3-({[3-amino-6-(3-{[(1S)-2,3-dihydro-1H-inden-1-ylamino]carbonyl}phenyl)pyrazin-2-yl]carbonyl}amino)piperidine-1-carboxylate] | 50 to 1000 nM
CC(C)(C)OC(=O)N1CCC[C@H](NC(=O)c2nc(-c3cccc(C(=O)N[C@@H]4c5ccccc5C[C@@H]4O)c3)cnc2N)C1 [Example 777, 1,1-dimethylethyl (3S)-3-[({3-amino-6-[3-({[(1R,2S)-2-hydroxy-2,3-dihydro-1H-inden-1-yl]amino}carbonyl)phenyl]pyrazin-2-yl}carbonyl)amino]piperidine-1-carboxylate] | < 50 nM
Nc1ncc(-c2cccc(C(=O)NC3CCOc4ccccc43)c2)nc1C(=O)N[C@H]1CCNC1 (stereo partly drawn) [Example 778, 3-amino-6-{3-[(3,4-dihydro-2H-chromen-4-ylamino)carbonyl]phenyl}-N-[(3S)-pyrrolidin-3-yl]pyrazine-2-carboxamide] | 50 to 1000 nM
Nc1ncc(-c2cccc(C(=O)NC3COc4ccccc43)c2)nc1C(=O)N[C@H]1CCNC1 (stereo partly drawn) [Example 779, 3-amino-6-{3-[(2,3-dihydro-1-benzofuran-3-ylamino)carbonyl]phenyl}-N-[(3S)-pyrrolidin-3-yl]pyrazine-2-carboxamide] | 50 to 1000 nM
Nc1ncc(-c2cccc(C(=O)N[C@@H]3c4ccccc4C[C@@H]3O)c2)nc1C(=O)NC[C@@H]1CCNC1 [Example 780, 3-amino-6-[3-({[(1R,2S)-2-hydroxy-2,3-dihydro-1H-inden-1-yl]amino}carbonyl)phenyl]-N-[(3R)-pyrrolidin-3-ylmethyl]pyrazine-2-carboxamide] | < 50 nM
CC(C)(C)OC(=O)N1CCCC(NC(=O)c2nc(-c3cccc(C(=O)N[C@@H]4c5ccccc5C[C@@H]4O)c3)cnc2N)CC1 (stereo partly drawn) [Example 781, 1,1-dimethylethyl 4-[({3-amino-6-[3-({[(1R,2S)-2-hydroxy-2,3-dihydro-1H-inden-1-yl]amino}carbonyl)phenyl]pyrazin-2-yl}carbonyl)amino]azepane-1-carboxylate] | 50 to 1000 nM
Nc1ncc(-c2cccc(C(=O)N[C@@H]3c4ccccc4C[C@@H]3O)c2)nc1C(=O)NC1CCCNCC1 (stereo partly drawn) [Example 782, 3-amino-N-azepan-4-yl-6-[3-({[(1R,2S)-2-hydroxy-2,3-dihydro-1H-inden-1-yl]amino}carbonyl)phenyl]pyrazine-2-carboxamide] | < 50 nM
Nc1ncc(-c2cccc(C3=N[C@@H]4c5ccccc5C[C@@H]4O3)c2)nc1C(=O)NC1CCCNCC1 (stereo partly drawn) [Example 783, 3-amino-N-azepan-4-yl-6-{3-[(3aR,8aS)-8,8a-dihydro-3aH-indeno[1,2-d][1,3]oxazol-2-yl]phenyl}pyrazine-2-carboxamide] | 50 to 1000 nM
Nc1ncc(-c2cccc(C(=O)N[C@H]3CCc4ccccc43)c2)nc1C(=O)NC[C@H]1CCNC1 [Example 785, 3-amino-6-(3-{[(1S)-2,3-dihydro-1H-inden-1-ylamino]carbonyl}phenyl)-N-[(3S)-pyrrolidin-3-ylmethyl]pyrazine-2-carboxamide] | < 50 nM

Source: US7704995B2 (Exelixis, Inc., priority 2003, dated 2010)
